Literature values, collected in patent US5385922A, “Thiazolidine derivatives” (Cedona Pharmaceuticals B.V., priority 1990, dated 1995).
pIC50: −log10 of the molar value.

Columns and labels:
[1] = tested on: rat aorta contracted using phenylephrine; conditions: cited from earlier work
[2] = tested on: angiotensin converting enzyme (ACE); conditions: literature, WO 89/12627, cited from earlier work

C[C@H](CSN=O)C(=O)N1CCC[C@H]1C(=O)O [S-ni-trosocaptopril]
pIC50 ([1]; rat aorta contracted using phenylephrine, read-out: relaxing effect via the NO portion, IC50): ~7.00
relaxing concentration relative to ACE-inhibiting concentration ([1]; relaxation IC50 vs ACE-inhibition IC50): about 100 times higher
ACE-inhibiting effect compared with captopril (in words) [2]: comparable to that of captopril
pIC50 ([2]; read-out: ACE-inhibiting effect IC50): ~9.00
